Reference: patent publication US20110178299A1, “OPTICALLY ACTIVE DIFLUOROMETHANESULFONANILIDE DERIVATIVE AND HERBICIDE” (Kumiai Chemical Industry Co., Ltd., priority 2008, published 2011)

Experiments:
Assay in all cases: Paddy pot test of herbicidal effect, water surface application of wettable powder
Format in all cases: in vivo
Settings in all cases: applied onto water surface 3 days after sowing, examined after 30 days
[1] = test system: Monochoria vaginalis Presl var. plan-taginea (Roxb.) Solms-Lau.
Procedure: (§1) A paddy field soil was filled in a plastic pot having an area of 1/5000 are. Beginning of irrigation, fertilizer application and puddling were conducted. Then, seeds of Echinochloa oryzicola Vasing, Monochoria vaginalis Presl var. plan-taginea (Roxb.) Solms-Lau. and Scirpus juncoides Roxb. were sowed at a depth of 0.5 cm, and submerging was conducted so as to give a water depth of 4 cm. 3 days after the sowing, the wettable powder prepared as in the formulation 1 was diluted with water and dropwise added onto the water surface so that the active ingredient amount (g/10 are) added became the level shown in Table 2. Then, breeding was made at room temperature and, after 30 days, herbicidal effect was examined according to the yardstick shown in Table 1.

[2] = test system: Echinochloa oryzicola Vasing
Procedure: as §1

[3] = test system: Scirpus juncoides Roxb.
Procedure: as §1

Compound	Herbicidal effect (degree of growth control) index, Monochoria vaginalis ([1]; dose 0.04 g ai/10 a)	Herbicidal effect (degree of growth control) index, Monochoria vaginalis ([1]; dose 0.08 g ai/10 a)	Herbicidal effect (degree of growth control) index, Monochoria vaginalis ([1]; dose 0.16 g ai/10 a)	Herbicidal effect (degree of growth control) index, Monochoria vaginalis ([1]; dose 0.32 g ai/10 a)	Herbicidal effect (degree of growth control) index, Echinochloa oryzicola ([2]; dose 0.04 g ai/10 a)	Herbicidal effect (degree of growth control) index, Echinochloa oryzicola ([2]; dose 0.08 g ai/10 a)	Herbicidal effect (degree of growth control) index, Echinochloa oryzicola ([2]; dose 0.16 g ai/10 a)	Herbicidal effect (degree of growth control) index, Echinochloa oryzicola ([2]; dose 0.32 g ai/10 a)	Herbicidal effect (degree of growth control) index, Scirpus juncoides ([3]; dose 0.04 g ai/10 a)	Herbicidal effect (degree of growth control) index, Scirpus juncoides ([3]; dose 0.08 g ai/10 a)	Herbicidal effect (degree of growth control) index, Scirpus juncoides ([3]; dose 0.16 g ai/10 a)	Herbicidal effect (degree of growth control) index, Scirpus juncoides ([3]; dose 0.32 g ai/10 a)
COCc1cccc([C@@H](O)c2nc(OC)cc(OC)n2)c1NS(=O)(=O)C(F)F [compound 1, (R)-2′-(4,6-dimethoxypyrimidin-2-yl)hydroxymethyl-6′-methoxymethyl-1,1-difluoromethanesulfonanilide]	0 (Herbicidal effect of less than 10%)	9 (Herbicidal effect of 90 inclusive to 100% exclusive)	10 (Herbicidal effect of 100% control)	10 (Herbicidal effect of 100% control)	1 (Herbicidal effect of 10% inclusive to 20% exclusive)	6 (Herbicidal effect of 60% inclusive to 70% exclusive)	9 (Herbicidal effect of 90 inclusive to 100% exclusive)	9 (Herbicidal effect of 90 inclusive to 100% exclusive)	7 (Herbicidal effect of 70% inclusive to 80% exclusive)	9 (Herbicidal effect of 90 inclusive to 100% exclusive)	10 (Herbicidal effect of 100% control)	10 (Herbicidal effect of 100% control)
COCc1cccc([C@H](O)c2nc(OC)cc(OC)n2)c1NS(=O)(=O)C(F)F [compound 3, (S)-2′-(4,6-dimethoxypyrimidin-2-yl)hydroxyl-methyl-6′-methoxymethyl-1,1-difluoromethanesulfonanilide]	–	–	–	0 (Herbicidal effect of less than 10%)	–	–	–	0 (Herbicidal effect of less than 10%)	–	–	–	0 (Herbicidal effect of less than 10%)
COCc1cccc(C(O)c2nc(OC)cc(OC)n2)c1NS(=O)(=O)C(F)F (racemic) [compound 2, (RS)-2′-(4,6-dimethoxypyrimidin-2-yl)hydroxymethyl-6′-methoxymethyl-1,1-difluoromethanesulfonanilide, reference compound]	0 (Herbicidal effect of less than 10%)	0 (Herbicidal effect of less than 10%)	9 (Herbicidal effect of 90 inclusive to 100% exclusive)	10 (Herbicidal effect of 100% control)	1 (Herbicidal effect of 10% inclusive to 20% exclusive)	3 (Herbicidal effect of 30% inclusive to 40% exclusive)	5 (Herbicidal effect of 50% inclusive to 60% exclusive)	7 (Herbicidal effect of 70% inclusive to 80% exclusive)	2 (Herbicidal effect of 20% inclusive to 30% exclusive)	8 (Herbicidal effect of 80% inclusive to 90% exclusive)	9 (Herbicidal effect of 90 inclusive to 100% exclusive)	10 (Herbicidal effect of 100% control)
